Data reported in patent US20100216795A1, “TNIK INHIBITOR AND THE USE” (priority 2008, published 2010).

Key:
Assay in all cases: Selectivity profiling, QuickScout STK Screening Panel
Format in all cases: biochemical
[1] = target: T1, Erk2 (Homo sapiens, UniProt P28482)
T1 construct: purchased Carna Biosciences
Experimental: (§1) The inhibitory effects of Compound 1 against 20 tyrosine kinases and 30 serine/threonine kinases were investigated using QuickScout™ TK and STK Screening Panel (Carna Biosciences, Kobe Japan). […] The results reveal that Compound 1 inhibits TNIK_N more potently (IC50; 9 nM) than the other 50 kinases.

[2] = target: T2, MAPKAPK2 (Homo sapiens, UniProt P49137)
T2 construct: purchased Carna Biosciences
Experimental: as §1

[3] = target: T3, PKCa (Homo sapiens, UniProt P17252)
T3 construct: purchased Carna Biosciences
Experimental: as §1

[4] = target: T4, MAP2K1 (Homo sapiens, UniProt Q02750)
T4 construct: purchased Carna Biosciences
T4 sequence (Q02750 whole entry): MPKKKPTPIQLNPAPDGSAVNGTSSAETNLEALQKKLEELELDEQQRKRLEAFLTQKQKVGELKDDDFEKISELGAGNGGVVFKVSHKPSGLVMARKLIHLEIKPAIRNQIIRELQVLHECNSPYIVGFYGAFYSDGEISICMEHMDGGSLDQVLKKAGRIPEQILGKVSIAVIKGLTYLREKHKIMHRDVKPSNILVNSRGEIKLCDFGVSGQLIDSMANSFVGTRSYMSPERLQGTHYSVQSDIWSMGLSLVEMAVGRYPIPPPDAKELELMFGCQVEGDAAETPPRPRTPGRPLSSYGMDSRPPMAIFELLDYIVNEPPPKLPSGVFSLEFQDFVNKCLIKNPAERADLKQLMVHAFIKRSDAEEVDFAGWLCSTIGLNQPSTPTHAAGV
Experimental: as §1

[5] = target: T5, GSK3b (Homo sapiens, UniProt P49841)
T5 construct: purchased Carna Biosciences
T5 sequence (P49841 whole entry): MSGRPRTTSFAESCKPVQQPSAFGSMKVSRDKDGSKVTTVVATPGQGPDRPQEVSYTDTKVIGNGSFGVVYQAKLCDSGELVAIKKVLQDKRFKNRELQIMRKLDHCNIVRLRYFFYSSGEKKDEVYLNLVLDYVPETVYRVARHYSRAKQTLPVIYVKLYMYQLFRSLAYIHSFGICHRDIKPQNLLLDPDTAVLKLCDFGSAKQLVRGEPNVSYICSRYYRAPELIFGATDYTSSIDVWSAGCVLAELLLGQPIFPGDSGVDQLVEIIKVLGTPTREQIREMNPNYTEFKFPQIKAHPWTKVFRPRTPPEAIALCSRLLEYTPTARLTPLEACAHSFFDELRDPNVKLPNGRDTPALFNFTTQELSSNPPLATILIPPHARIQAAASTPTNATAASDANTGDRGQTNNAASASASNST
Experimental: as §1

[6] = target: T6, AKT1 (Homo sapiens, UniProt P31749)
T6 construct: purchased Carna Biosciences
T6 sequence (P31749 whole entry): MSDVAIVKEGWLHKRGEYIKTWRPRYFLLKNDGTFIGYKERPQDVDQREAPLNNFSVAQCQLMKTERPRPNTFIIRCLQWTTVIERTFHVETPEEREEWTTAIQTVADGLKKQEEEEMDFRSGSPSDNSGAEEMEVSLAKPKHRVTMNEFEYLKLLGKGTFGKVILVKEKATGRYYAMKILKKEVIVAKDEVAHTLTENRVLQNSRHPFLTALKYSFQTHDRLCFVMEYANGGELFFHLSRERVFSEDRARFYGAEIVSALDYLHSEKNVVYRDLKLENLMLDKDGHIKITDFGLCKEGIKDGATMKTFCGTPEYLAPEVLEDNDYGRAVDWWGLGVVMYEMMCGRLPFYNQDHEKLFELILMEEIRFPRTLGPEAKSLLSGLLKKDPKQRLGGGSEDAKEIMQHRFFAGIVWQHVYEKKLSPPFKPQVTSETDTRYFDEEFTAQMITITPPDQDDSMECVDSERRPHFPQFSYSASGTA
Experimental: as §1

[7] = target: T7, PIM1 (Homo sapiens, UniProt P11309)
T7 construct: purchased Carna Biosciences
Experimental: as §1

[8] = target: T8, MST1 (Homo sapiens, UniProt Q13043)
T8 construct: purchased Carna Biosciences
Experimental: as §1

[9] = target: T9, PKACa (Homo sapiens, UniProt P17612)
T9 construct: purchased Carna Biosciences
Experimental: as §1

[10] = target: T10, p38a (Homo sapiens, UniProt Q16539)
T10 construct: purchased Carna Biosciences
T10 sequence (Q16539 whole entry): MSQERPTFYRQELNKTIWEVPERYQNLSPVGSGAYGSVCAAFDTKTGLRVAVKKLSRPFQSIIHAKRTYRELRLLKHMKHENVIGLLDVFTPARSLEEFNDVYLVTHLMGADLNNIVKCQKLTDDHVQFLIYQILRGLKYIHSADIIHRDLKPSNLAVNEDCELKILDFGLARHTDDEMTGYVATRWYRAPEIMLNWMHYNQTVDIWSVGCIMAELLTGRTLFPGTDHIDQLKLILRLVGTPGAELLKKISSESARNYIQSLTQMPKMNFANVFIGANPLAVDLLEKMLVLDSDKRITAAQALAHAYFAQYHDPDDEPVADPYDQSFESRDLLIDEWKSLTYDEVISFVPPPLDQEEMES
Experimental: as §1

[11] = target: T11, PDK1 (Homo sapiens, UniProt O15530)
T11 construct: purchased Carna Biosciences
T11 sequence (O15530 whole entry): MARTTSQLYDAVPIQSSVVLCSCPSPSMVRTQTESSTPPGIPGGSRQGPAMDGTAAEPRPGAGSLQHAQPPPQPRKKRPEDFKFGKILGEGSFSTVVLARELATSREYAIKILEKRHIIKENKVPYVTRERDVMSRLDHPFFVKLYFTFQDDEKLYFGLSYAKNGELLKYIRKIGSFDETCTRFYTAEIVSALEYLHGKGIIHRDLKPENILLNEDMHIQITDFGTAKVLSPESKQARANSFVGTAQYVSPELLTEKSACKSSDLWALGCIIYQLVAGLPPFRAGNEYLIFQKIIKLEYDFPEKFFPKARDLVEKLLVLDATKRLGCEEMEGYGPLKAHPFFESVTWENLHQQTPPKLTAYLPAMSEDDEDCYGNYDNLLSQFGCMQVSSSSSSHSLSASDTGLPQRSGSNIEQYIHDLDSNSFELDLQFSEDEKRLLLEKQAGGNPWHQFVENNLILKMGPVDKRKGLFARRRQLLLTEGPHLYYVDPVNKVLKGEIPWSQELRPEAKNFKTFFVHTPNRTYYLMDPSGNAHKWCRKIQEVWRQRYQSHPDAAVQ
Experimental: as §1

[12] = target: T12, PAK4 (Homo sapiens, UniProt O96013)
T12 construct: purchased Carna Biosciences
Experimental: as §1

[13] = target: T13, AurA (Homo sapiens, UniProt O14965)
T13 construct: purchased Carna Biosciences
T13 sequence (O14965 whole entry): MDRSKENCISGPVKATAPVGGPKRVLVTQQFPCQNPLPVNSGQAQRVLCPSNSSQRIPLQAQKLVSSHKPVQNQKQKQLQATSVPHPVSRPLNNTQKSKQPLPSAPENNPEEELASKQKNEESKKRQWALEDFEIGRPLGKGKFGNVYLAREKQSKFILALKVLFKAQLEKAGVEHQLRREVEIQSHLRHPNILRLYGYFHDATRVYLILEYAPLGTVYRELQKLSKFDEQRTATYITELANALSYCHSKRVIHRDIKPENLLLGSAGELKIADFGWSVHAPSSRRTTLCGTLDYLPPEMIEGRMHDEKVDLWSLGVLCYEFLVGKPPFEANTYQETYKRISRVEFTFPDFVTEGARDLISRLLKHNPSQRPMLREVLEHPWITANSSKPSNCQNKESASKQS
Experimental: as §1

[14] = target: T14, ROCK1 (Homo sapiens, UniProt Q13464)
T14 construct: purchased Carna Biosciences
T14 sequence (Q13464 whole entry): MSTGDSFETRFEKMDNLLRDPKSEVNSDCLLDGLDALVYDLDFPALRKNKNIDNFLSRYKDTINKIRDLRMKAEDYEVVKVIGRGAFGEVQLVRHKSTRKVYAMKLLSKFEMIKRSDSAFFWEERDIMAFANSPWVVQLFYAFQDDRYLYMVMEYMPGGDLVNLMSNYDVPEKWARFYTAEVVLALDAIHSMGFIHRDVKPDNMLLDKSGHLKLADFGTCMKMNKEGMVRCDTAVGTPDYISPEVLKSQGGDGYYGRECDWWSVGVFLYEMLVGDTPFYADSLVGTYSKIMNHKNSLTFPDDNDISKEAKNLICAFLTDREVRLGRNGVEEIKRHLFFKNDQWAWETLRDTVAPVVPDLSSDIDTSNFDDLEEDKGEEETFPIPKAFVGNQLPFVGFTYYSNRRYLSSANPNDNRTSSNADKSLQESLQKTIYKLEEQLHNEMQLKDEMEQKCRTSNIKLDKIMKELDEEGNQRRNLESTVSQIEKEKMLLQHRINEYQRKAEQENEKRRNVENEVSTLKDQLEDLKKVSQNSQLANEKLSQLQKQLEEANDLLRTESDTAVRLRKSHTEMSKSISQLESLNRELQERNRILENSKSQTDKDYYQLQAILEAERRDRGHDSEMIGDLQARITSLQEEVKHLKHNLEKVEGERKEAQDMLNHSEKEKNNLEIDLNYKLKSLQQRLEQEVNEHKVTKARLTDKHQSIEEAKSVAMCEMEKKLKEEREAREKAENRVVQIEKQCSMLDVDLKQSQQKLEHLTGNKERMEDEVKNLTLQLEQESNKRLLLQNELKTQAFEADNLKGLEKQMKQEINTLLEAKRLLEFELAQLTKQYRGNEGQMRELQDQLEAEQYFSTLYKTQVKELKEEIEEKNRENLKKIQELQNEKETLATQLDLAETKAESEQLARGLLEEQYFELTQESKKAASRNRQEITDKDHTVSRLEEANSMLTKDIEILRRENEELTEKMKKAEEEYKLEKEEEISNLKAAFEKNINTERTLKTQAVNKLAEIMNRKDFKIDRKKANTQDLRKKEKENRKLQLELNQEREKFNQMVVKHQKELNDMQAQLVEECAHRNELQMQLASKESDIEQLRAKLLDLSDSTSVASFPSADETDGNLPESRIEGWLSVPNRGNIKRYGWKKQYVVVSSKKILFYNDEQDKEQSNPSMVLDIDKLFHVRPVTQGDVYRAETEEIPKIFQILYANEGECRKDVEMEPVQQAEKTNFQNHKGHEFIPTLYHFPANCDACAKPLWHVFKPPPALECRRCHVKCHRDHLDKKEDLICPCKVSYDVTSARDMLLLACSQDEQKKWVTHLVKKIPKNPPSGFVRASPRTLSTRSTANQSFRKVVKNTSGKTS
Experimental: as §1

[15] = target: T15, IKKb (Homo sapiens, UniProt O14920)
T15 construct: purchased Carna Biosciences
Experimental: as §1

[16] = target: T16, JNK2 (Homo sapiens, UniProt P45984)
T16 construct: purchased Carna Biosciences
Experimental: as §1

[17] = target: T17, CHK1 (Homo sapiens, UniProt O14757)
T17 construct: purchased Carna Biosciences
Experimental: as §1

T1 sequence (P28482 whole entry): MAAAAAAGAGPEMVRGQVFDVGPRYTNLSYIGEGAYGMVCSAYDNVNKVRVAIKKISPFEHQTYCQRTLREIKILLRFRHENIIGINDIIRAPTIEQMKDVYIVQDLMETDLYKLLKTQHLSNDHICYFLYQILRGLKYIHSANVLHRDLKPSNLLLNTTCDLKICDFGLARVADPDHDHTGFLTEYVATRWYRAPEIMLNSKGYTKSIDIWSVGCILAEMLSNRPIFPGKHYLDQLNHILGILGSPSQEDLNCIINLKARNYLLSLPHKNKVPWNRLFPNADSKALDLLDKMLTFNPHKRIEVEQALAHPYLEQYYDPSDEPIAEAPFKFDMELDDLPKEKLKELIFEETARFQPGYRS

CC(=O)Nc1ccc(C(=O)Nc2sc(Nc3ccccc3)nc2C(N)=O)cc1 [Compound 1, 5-(4-acetamidobenzamido)-2-(phenylamino)thiazole-4-carboxamide]
IC50 [1]: > 300 nM
IC50 [2]: > 300 nM
IC50 [3]: > 300 nM
IC50 [4]: > 300 nM
IC50 [5]: 120 nM
IC50 [6]: > 300 nM
IC50 [7]: > 300 nM
IC50 [8]: > 300 nM
IC50 [9]: > 300 nM
IC50 [10]: > 300 nM
IC50 [11]: > 300 nM
IC50 [12]: > 300 nM
IC50 [13]: 130 nM
IC50 [14]: > 300 nM
IC50 [15]: > 300 nM
IC50 [16]: > 300 nM
IC50 [17]: > 300 nM
